Changes are numbered by the printed parent chain.
Experiments:
[1] = molecular target: T1, Ls-MalY (Lactobacillaceae, UniProt A0A223K4L6, Y123A); assay: UV-vis absorption spectrum, hydroxylamine treatment; format: binding; settings: 20 mM potassium phosphate pH 7.5; as purified
T1 construct: full length in pET-22b(+), C-terminal hexa-histidine tag, E. coli BL21(DE3), subunit ~46 kDa with tag, 281 kDa by gel filtration, homohexamer
T1 sequence (A0A223K4L6 1-391 Y123A): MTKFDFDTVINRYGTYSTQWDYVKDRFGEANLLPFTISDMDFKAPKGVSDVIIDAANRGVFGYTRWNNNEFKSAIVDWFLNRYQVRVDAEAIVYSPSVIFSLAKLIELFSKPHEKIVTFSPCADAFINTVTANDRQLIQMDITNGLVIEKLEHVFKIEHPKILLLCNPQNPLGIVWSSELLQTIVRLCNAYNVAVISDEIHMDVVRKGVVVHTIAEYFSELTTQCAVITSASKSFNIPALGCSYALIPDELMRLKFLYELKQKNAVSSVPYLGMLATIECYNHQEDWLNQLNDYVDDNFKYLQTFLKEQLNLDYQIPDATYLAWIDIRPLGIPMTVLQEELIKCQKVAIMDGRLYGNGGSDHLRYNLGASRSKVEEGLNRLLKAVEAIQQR

[2] = molecular target: T2, Ls-MalY (Lactobacillaceae, UniProt A0A223K4L6); assay: UV-vis absorption spectrum ([…] nm peak), hydroxylamine treatment; format: binding; settings: 20 mM potassium phosphate pH 7.5; as purified; covalent, K233
T2 construct: full length in pET-22b(+), C-terminal hexa-histidine tag, E. coli BL21(DE3), subunit ~46 kDa with tag, 281 kDa by gel filtration, homohexamer
T2 sequence (A0A223K4L6 1-391): T1 sequence (A0A223K4L6 1-391 Y123A) with A123Y

[3] = molecular target: MalY from Lactobacillus sakei LT-13 (wild type) (Lactobacillus sakei LT-13); assay: SEC; Superdex 200 Increase 10/300 GL, 20 mM potassium phosphate pH 7.5 with 0.15 M KCl, 0.75 mL/min; molecular weight estimated against markers (thyroglobulin, apoferritin, β-amylase, BSA, carbonic anhydrase)

Row | Compound | UV-vis absorption spectrum, hydroxylamine treatment [1] | UV-vis absorption spectrum (420 nm peak), hydroxylamine treatment [2] | stoichiometry N [3]
1 | Cc1ncc(COP(=O)(O)O)c(C=O)c1O [PLP] | These spectral features suggest that the Y123A mutant bound PLP | the absorption peak was abolished by treatment with hydroxylamine (Figure 3A), suggesting that Ls-MalY bound PLP | –
2 | MalY from Lactobacillus sakei LT-13 (wild type) (enzyme) | – | – | 6

— paper PMC5845896, “A Novel Bifunctional Amino Acid Racemase With Multiple Substrate Specificity, MalY From Lactobacillus sakei LT-13: Genome-Based Identification and Enzymological Characterization” (Frontiers in Microbiology, 2018)
